In patent US20250361252A1 (EVER Neuro Pharma GmbH, priority 2022, published 2025):

Tests used:
[1] = in vivo; cited from earlier work
[2] = single dose; cited from earlier work
[3] = cited from earlier work
[4] = in NaCl solution; cited from earlier work
human hepatocytes = assay: Metabolic stability / conversion to apomorphine on incubation with human hepatocytes

Molecule: N[C@@H](Cc1ccc(O)c(O)c1)C(=O)O [L-dopa]
- plasma half-life [1]: 60 to 90 min

Molecule: CN1CCc2cccc3c2[C@H]1Cc1ccc(O)c(O)c1-3 [apomorphine]
- duration of effect (mean) [2]: 40 min
- incidence of nodule formation ([3]; subcutaneous infusion therapy, meta-analysis): 70%
- patients terminating therapy because of irritations ([3]; subcutaneous infusion, within one year): 70%
- solubility [4]: < 10000 µg/mL

Molecule: Apomorphine Monophosphate Calcium Salt [VIR-1-097-Ca]
- solubility in water: Reduced solubility in water

Molecule: Apomorphine Monophosphate Potassium Salt [VIR-1-097-K]
- solubility in water: highly soluble in water

Molecule: apomorphine monophosphate
- formation of apomorphine in cell-free control group (human hepatocytes; cell-free negative control): no significant formation of apomorphine
- conversion of prodrug into apomorphine (human hepatocytes; human hepatocytes): rapidly converted into apomorphine
- half-life of apomorphine monophosphate (human hepatocytes; human hepatocytes): 33 min
- time of highest amount of apomorphine found (human hepatocytes; human hepatocytes): 10 min
- apomorphine monophosphate converted to apomorphine (human hepatocytes; human hepatocytes, within 10 min): about 30%
- apomorphine monophosphate consumed (human hepatocytes; human hepatocytes, within 60 minutes): about 75%
